Data: ChEMBL document CHEMBL3612057, “Discovery of indolizines containing triazine moiety as new leads for the development of antitumoral agents targeting mitotic events” (2015)
Activity calls are given as the source filed them. The calls are words filed in the database; no cut-off is given here.

Columns and labels:
CCRF-CEM = experiment: Cytotoxicity against human CCRF-CEM cells assessed as growth inhibition at 10 uM after 24 hrs by SRB assay; format: functional
HL-60(TB) = experiment: Cytotoxicity against human HL-60(TB) cells assessed as growth inhibition at 10 uM after 24 hrs by SRB assay; format: functional
K562 = experiment: Cytotoxicity against human K562 cells assessed as growth inhibition at 10 uM after 24 hrs by SRB assay; format: functional
RPMI-8226 = experiment: Cytotoxicity against human RPMI8226 cells assessed as growth inhibition at 10 uM after 24 hrs by SRB assay; format: functional
SR = experiment: Cytotoxicity against human SR cells assessed as growth inhibition at 10 uM after 24 hrs by SRB assay; format: functional
A549 = experiment: Cytotoxicity against human A549 cells assessed as growth inhibition at 10 uM after 24 hrs by SRB assay; format: functional
HOP-62 = experiment: Cytotoxicity against human HOP62 cells assessed as growth inhibition at 10 uM after 24 hrs by SRB assay; format: functional
HOP-92 = experiment: Cytotoxicity against human HOP92 cells assessed as growth inhibition at 10 uM after 24 hrs by SRB assay; format: functional
NCI-H226 = experiment: Cytotoxicity against human NCI-H226 cells assessed as growth inhibition at 10 uM after 24 hrs by SRB assay; format: functional
NCI-H460 = experiment: Cytotoxicity against human NCI-H460 cells assessed as growth inhibition at 10 uM after 24 hrs by SRB assay; format: functional
NCI-H522 = experiment: Cytotoxicity against human NCI-H522 cells assessed as growth inhibition at 10 uM after 24 hrs by SRB assay; format: functional
HCT-116 = experiment: Cytotoxicity against human HCT116 cells assessed as growth inhibition at 10 uM after 24 hrs by SRB assay; format: functional
SF-295 = experiment: Cytotoxicity against human SF295 cells assessed as growth inhibition at 10 uM after 24 hrs by SRB assay; format: functional
SF-539 = experiment: Cytotoxicity against human SF539 cells assessed as growth inhibition at 10 uM after 24 hrs by SRB assay; format: functional
SNB-75 = experiment: Cytotoxicity against human SNB75 cells assessed as growth inhibition at 10 uM after 24 hrs by SRB assay; format: functional
U-251 = experiment: Cytotoxicity against human U251 cells assessed as growth inhibition at 10 uM after 24 hrs by SRB assay; format: functional
Malme-3M = experiment: Cytotoxicity against human MALME-3M cells assessed as growth inhibition at 10 uM after 24 hrs by SRB assay; format: functional; details: read-out: GI
MDA-MB-435 = experiment: Cytotoxicity against human MDA-MB-435 cells assessed as growth inhibition at 10 uM after 24 hrs by SRB assay; format: functional
SK-MEL-28 = experiment: Cytotoxicity against human SK-MEL-28 cells assessed as growth inhibition at 10 uM after 24 hrs by SRB assay; format: functional
SK-MEL-5 = experiment: Cytotoxicity against human SK-MEL-5 cells assessed as growth inhibition at 10 uM after 24 hrs by SRB assay; format: functional
UACC-257 = experiment: Cytotoxicity against human UACC257 cells assessed as growth inhibition at 10 uM after 24 hrs by SRB assay; format: functional
UACC-62 = experiment: Cytotoxicity against human UACC62 cells assessed as growth inhibition at 10 uM after 24 hrs by SRB assay; format: functional
OVCAR-3 = experiment: Cytotoxicity against human OVCAR3 cells assessed as growth inhibition at 10 uM after 24 hrs by SRB assay; format: functional
OVCAR-4 = experiment: Cytotoxicity against human OVCAR4 cells assessed as growth inhibition at 10 uM after 24 hrs by SRB assay; format: functional
OVCAR-8 = experiment: Cytotoxicity against human OVCAR8 cells assessed as growth inhibition at 10 uM after 24 hrs by SRB assay; format: functional
NCI/ADR-RES = experiment: Cytotoxicity against human NCI/ADR-RES cells assessed as growth inhibition at 10 uM after 24 hrs by SRB assay; format: functional
SK-OV-3 = experiment: Cytotoxicity against human SKOV3 cells assessed as growth inhibition at 10 uM after 24 hrs by SRB assay; format: functional
786-0 = experiment: Cytotoxicity against human 786-0 cells assessed as growth inhibition at 10 uM after 24 hrs by SRB assay; format: functional
ACHN = experiment: Cytotoxicity against human ACHN cells assessed as growth inhibition at 10 uM after 24 hrs by SRB assay; format: functional
CAKI-1 = experiment: Cytotoxicity against human CAKI-1 cells assessed as growth inhibition at 10 uM after 24 hrs by SRB assay; format: functional
RXF 393 = experiment: Cytotoxicity against human RXF393 cells assessed as growth inhibition at 10 uM after 24 hrs by SRB assay; format: functional
TK-10 = experiment: Cytotoxicity against human TK10 cells assessed as growth inhibition at 10 uM after 24 hrs by SRB assay; format: functional
PC-3 = experiment: Cytotoxicity against human PC3 cells assessed as growth inhibition at 10 uM after 24 hrs by SRB assay; format: functional
MCF7 = experiment: Cytotoxicity against human MCF7 cells assessed as growth inhibition at 10 uM after 24 hrs by SRB assay; format: functional
MDA-MB-231 = experiment: Cytotoxicity against human MDA-MB-231 cells assessed as growth inhibition at 10 uM after 24 hrs by SRB assay; format: functional
Hs-578T = experiment: Cytotoxicity against human Hs578T cells assessed as growth inhibition at 10 uM after 24 hrs by SRB assay; format: functional
T47D = experiment: Cytotoxicity against human T47D cells assessed as growth inhibition at 10 uM after 24 hrs by SRB assay; format: functional
Ovis aries = species: Ovis aries; experiment: Inhibition of sheep tubulin polymerization at 100 uM by fluorescence assay

SMILES | growth inhibition (GI) (CCRF-CEM) | growth inhibition (GI) (HL-60(TB)) | growth inhibition (GI) (RPMI-8226) | growth inhibition (GI) (A549) | growth inhibition (GI) (HOP-62) | growth inhibition (GI) (HOP-92) | growth inhibition (GI) (NCI-H226) | growth inhibition (GI) (NCI-H460) | growth inhibition (GI) (NCI-H522) | growth inhibition (GI) (HCT-116) | growth inhibition (GI) (SF-539) | growth inhibition (GI) (SNB-75) | growth inhibition (GI) (U-251) | inhibition of growth at 10 µM (Malme-3M) [%] | growth inhibition (GI) (SK-MEL-5) | growth inhibition (GI) (UACC-62) | growth inhibition (GI) (OVCAR-3) | growth inhibition (GI) (OVCAR-8) | growth inhibition (GI) (NCI/ADR-RES) | growth inhibition (GI) (SK-OV-3) | other results
COc1nc(OC)nc(-c2cc(C(=O)c3cc(OC)c(OC)c(OC)c3)n3ccccc23)n1 | inactive | inactive | inactive | inactive | inactive | inactive | inactive | inactive | inactive | inactive | inactive | inactive | inactive | 11 | inactive | inactive | inactive | inactive | inactive | inactive | inhibition of growth at 10 µM (K562; K562, 24 h, read-out: GI): 10%; inhibition of growth at 10 µM (SR; read-out: GI): 20%; growth inhibition (GI) (SF-295): inactive; inhibition of growth at 10 µM (MDA-MB-435; MDA-MB-435, 24 h, read-out: GI): 35%; growth inhibition (GI) (SK-MEL-28): inactive; growth inhibition (GI) (UACC-257): inactive; growth inhibition (GI) (OVCAR-4): inactive; growth inhibition (GI) (786-0): inactive; growth inhibition (GI) (ACHN): inactive; growth inhibition (GI) (CAKI-1): inactive; growth inhibition (GI) (RXF 393): inactive; growth inhibition (GI) (TK-10): inactive; growth inhibition (GI) (PC-3): inactive; growth inhibition (GI) (MCF7): inactive; growth inhibition (GI) (MDA-MB-231): inactive; growth inhibition (GI) (Hs-578T): inactive; growth inhibition (GI) (T47D): inactive; inhibition (Ovis aries): inactive
COc1nc(OC)nc(-c2cc(C(=O)c3ccc(Br)cc3)n3ccc(C)cc23)n1 | inactive | inactive | inactive | inactive | inactive | inactive | inactive | inactive | inactive | inactive | inactive | inactive | inactive | 73 | inactive | inactive | inactive | inactive | inactive | inactive | growth inhibition (GI) (K562): inactive; growth inhibition (GI) (SR): inactive; inhibition of growth at 10 µM (SF-295; SF-295, 24 h, read-out: GI): 20%; growth inhibition (GI) (MDA-MB-435): inactive; inhibition of growth at 10 µM (SK-MEL-28; SK-MEL-28, 24 h, read-out: GI): 30%; inhibition of growth at 10 µM (UACC-257; UACC-257, 24 h, read-out: GI): 31%; inhibition of growth at 10 µM (OVCAR-4; OVCAR-4, 24 h, read-out: GI): 95%; growth inhibition (GI) (786-0): inactive; growth inhibition (GI) (ACHN): inactive; growth inhibition (GI) (CAKI-1): inactive; growth inhibition (GI) (TK-10): inactive; growth inhibition (GI) (PC-3): inactive; inhibition of growth at 10 µM (MCF7; MCF7, 24 h, read-out: GI): 38%; growth inhibition (GI) (MDA-MB-231): inactive; growth inhibition (GI) (Hs-578T): inactive; growth inhibition (GI) (T47D): inactive; inhibition (Ovis aries): inactive
